For experiment [1], the target named is T1, Receptor-type tyrosine-protein kinase FLT3 (Homo sapiens, UniProt P36888).
T1 sequence (P36888 whole entry): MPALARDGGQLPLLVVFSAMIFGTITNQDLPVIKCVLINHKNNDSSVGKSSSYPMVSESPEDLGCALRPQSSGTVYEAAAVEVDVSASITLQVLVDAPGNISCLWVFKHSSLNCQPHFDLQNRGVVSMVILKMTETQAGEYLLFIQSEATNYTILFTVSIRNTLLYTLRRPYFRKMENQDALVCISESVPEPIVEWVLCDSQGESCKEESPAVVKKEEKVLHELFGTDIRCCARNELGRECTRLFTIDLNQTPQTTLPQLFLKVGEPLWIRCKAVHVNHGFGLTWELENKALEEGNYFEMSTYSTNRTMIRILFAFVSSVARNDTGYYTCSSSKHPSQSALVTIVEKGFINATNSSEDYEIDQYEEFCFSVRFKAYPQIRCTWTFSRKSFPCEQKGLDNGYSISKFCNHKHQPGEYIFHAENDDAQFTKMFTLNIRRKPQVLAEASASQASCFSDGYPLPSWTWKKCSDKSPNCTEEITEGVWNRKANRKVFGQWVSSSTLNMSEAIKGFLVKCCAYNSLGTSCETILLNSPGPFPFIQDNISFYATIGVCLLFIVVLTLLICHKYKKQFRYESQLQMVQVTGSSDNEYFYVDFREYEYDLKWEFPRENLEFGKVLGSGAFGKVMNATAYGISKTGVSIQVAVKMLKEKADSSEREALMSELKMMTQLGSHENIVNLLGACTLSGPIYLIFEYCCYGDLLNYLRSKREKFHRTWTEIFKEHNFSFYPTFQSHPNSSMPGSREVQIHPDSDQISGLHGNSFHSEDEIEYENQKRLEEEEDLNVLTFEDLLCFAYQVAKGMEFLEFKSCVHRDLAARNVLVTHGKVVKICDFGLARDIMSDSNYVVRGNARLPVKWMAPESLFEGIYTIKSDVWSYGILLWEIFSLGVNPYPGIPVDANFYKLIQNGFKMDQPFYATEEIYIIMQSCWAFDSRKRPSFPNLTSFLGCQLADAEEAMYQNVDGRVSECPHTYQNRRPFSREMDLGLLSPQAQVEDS
In words: Inhibition of FLT3.

The subject of experiment [2] is MV4-11. In words: Antiproliferative activity against human MV4-11 cells.

In experiment [1], `NC(=O)c1c(NC(=O)c2ccc(Oc3ccccc3)cc2)sc2c1CCCC2` had an IC50 of more than 10000 nM.

In the case of `NC(=O)c1c(NC(=O)c2ccccc2Cl)sc2c1CCCC2`, in experiment [1], the IC50 is more than 10000 nM.

For the compound `NC(=O)c1c(NC(=O)c2ccc(Cl)cc2)sc2c1CCCC2`, in experiment [2], inhibition was half-maximal at 1400 nM (IC50).

For `COc1cc(OC)cc(C(=O)Nc2sc3c(c2C(N)=O)CCCC3)c1`, in experiment [2], the IC50 was more than 10000 nM.

Consider `NC(=O)c1c(NC(=O)c2ccc3c(c2)OCO3)sc2c1CCCC2`, for which it took 890 nM to reach half-maximal inhibition in experiment [2] (IC50).

As to `CC(=O)c1ccc(C(=O)Nc2sc3c(c2C(N)=O)CCCC3)cc1`, the IC50 in experiment [2] was found to be 1800 nM.

In the case of `COc1ccc(C(=O)Nc2sc3c(c2C(N)=O)CCC3)cc1OC`, the IC50 in experiment [2] was 410 nM. This IC50 is about 4.4-fold lower than that of the compound before.

On to `Cc1cccc(C(=O)Nc2sc3c(c2C(N)=O)CCCC3)c1`, for which the IC50 in experiment [2] is 3200 nM.

In the case of `NC(=O)c1c(NC(=O)c2ccccn2)sc2c1CCCC2`, in experiment [2], the IC50 is 350 nM.

For `NC(=O)c1c(NC(=O)c2ccccc2)sc2c1CCCC2`, the IC50 is more than 10000 nM in experiment [2] and 360 nM in experiment [1].

As to `Cc1ccc(C(=O)Nc2sc3c(c2C(N)=O)CCCC3)cc1C`, the IC50 in experiment [2] amounted to 710 nM. This lies in the sub-micromolar range.

Take `NC(=O)c1c(NC(=O)/C=C/c2ccco2)sc2c1CCCC2`: in experiment [2], the IC50 was 480 nM.

In the case of `NC(=O)c1c(NC(=O)c2cccnc2)sc2c1CCCC2`, the IC50 in experiment [2] came to 2000 nM; in experiment [1] it was 1100 nM.

As for `COc1ccc(C(=O)Nc2sc3c(c2C(N)=O)CCCC3)cc1`, the IC50 in experiment [2] turned out to be 1300 nM. In other words, the single-digit micromolar range.

As to `NC(=O)c1c(NC(=O)C2CC2)sc2c1CCCC2`, the IC50 in experiment [2] is 1200 nM; in experiment [1], 1300 nM.

For the compound `COc1ccc(/C=C/C(=O)Nc2sc3c(c2C(N)=O)CCCC3)cc1`, the IC50 in experiment [2] stood at 1800 nM; in experiment [1], 250 nM.

In experiment [2], `COc1ccc(C(=O)Nc2sccc2C(N)=O)cc1OC` showed an IC50 of 2400 nM.

Compound `CC(C)(C)c1ccc(C(=O)Nc2sc3c(c2C(N)=O)CCCC3)cc1` returned an IC50 in experiment [2] of 1600 nM. This IC50 is about 1.5-fold lower than that of the compound before.

In experiment [1], `NC(=O)c1c(NC(=O)c2ccc(-c3ccccc3)cc2)sc2c1CCCC2` displayed an IC50 of more than 10000 nM.

Turning to `COc1ccc(/C=C/C(=O)Nc2sc3c(c2C(N)=O)CCCC3)cc1OC`, the IC50 in experiment [2] was 2000 nM.

Regarding `NC(=O)c1c(NC(=O)CSc2ccccc2)sc2c1CCCC2`, the IC50 was 3800 nM in experiment [2] and more than 10000 nM in experiment [1].

Take `COc1ccc(C(=O)Nc2sc3c(c2C(N)=O)CCCCCC3)cc1OC`: in experiment [1], the IC50 is more than 100000 nM.

Compound `Cc1ccc(/C=C/C(=O)Nc2sc3c(c2C(N)=O)CCCC3)o1` gave an IC50 in experiment [2] of 10000 nM.

As to `COc1cccc(C(=O)Nc2sc3c(c2C(N)=O)CCCC3)c1`, half-maximal inhibition in experiment [2] (IC50) was put at 1500 nM.

In experiment [2], `CC(C)c1ccc(/C=C/C(=O)Nc2sc3c(c2C(N)=O)CCCC3)cc1` came in with a half-inhibitory concentration (IC50) of 2700 nM.

Take `CC(=O)Nc1sc2c(c1C(N)=O)CCCC2`: in experiment [1], the IC50 was found to be 2000 nM.

Compound `NC(=O)c1c(NC(=O)COc2ccccc2)sc2c1CCCC2` registered an IC50 in experiment [1] of more than 10000 nM.

Take `CC(C)C(=O)Nc1sc2c(c1C(N)=O)CCCC2`: in experiment [1], the IC50 was more than 10000 nM.

In experiment [1], `COc1ccccc1C(=O)Nc1sc2c(c1C(N)=O)CCCC2` gave an IC50 of more than 10000 nM.

For the compound `COc1ccc(CCC(=O)Nc2sc3c(c2C(N)=O)CCCC3)cc1`, the IC50 in experiment [2] was more than 10000 nM.

With `NC(=O)c1c(NC(=O)c2ccc(Br)cc2)sc2c1CCCC2`, in experiment [2], the IC50 stood at 1500 nM.

In experiment [2], `NC(=O)c1c(NC(=O)c2ccco2)sc2c1CCCC2` came in with a half-inhibitory concentration (IC50) of 1500 nM.

For the compound `NC(=O)c1c(NC(=O)C2CCCCC2)sc2c1CCCC2`, the IC50 in experiment [1] is more than 10000 nM.

Take `COc1cc(C(=O)Nc2sc3c(c2C(N)=O)CCCC3)cc(OC)c1OC`: the IC50 in experiment [1] was more than 10000 nM.

For the compound `NC(=O)c1c(NC(=O)c2ccncc2)sc2c1CCCC2`, the IC50 in experiment [2] was found to be 2100 nM; in experiment [1] it was 110 nM.

With `NC(=O)c1c(NC(=O)/C=C/c2ccccc2)sc2c1CCCC2`, in experiment [2], the IC50 turned out to be 530 nM.

Take `NC(=O)c1c(NC(=O)Cc2ccccc2)sc2c1CCCC2`: in experiment [2], the IC50 is more than 10000 nM.

In turn, `Cc1ccc(C(=O)Nc2sc3c(c2C(N)=O)CCCC3)cc1` showed an IC50 in experiment [2] of 450 nM.

In experiment [2], `COc1ccc(C(=O)Nc2sc(C)c(C)c2C(N)=O)cc1OC` returned an IC50 of 330 nM.

In turn, `NC(=O)c1c(NC(=O)c2cccc(Cl)c2)sc2c1CCCC2` showed an IC50 in experiment [2] of 2200 nM.

The record behind these values is ChEMBL document CHEMBL1147807, “Identification of 2-acylaminothiophene-3-carboxamides as potent inhibitors of FLT3” (Bioorg Med Chem Lett, 2006).
